Laboratory results taken from ChEMBL document CHEMBL1122770, “Quantitative structure-activity relationship of insect juvenile hormone mimetic compounds” (J Med Chem, 1984).

Experiments:
Tenebrio molitor [1] = test: Tested for juvenile hormone mimetic activity in Tenebrio molitor (yellow mealworm) excluding from the analysis for activity against Aedes aegypti, Tenebrio molitor
Tenebrio molitor [2] = test: Tested for juvenile hormone mimetic activity in Tenebrio molitor (yellow mealworm) excluding from the analysis for activity against Anopheles aegypti; assay type: functional
[3] = Partition coefficient (logP); assay type: physicochemical; settings: octanol/water; read-out: logP
Tenebrio molitor [4] = test: Tested for juvenile hormone mimetic activity in Tenebrio molitor (yellow mealworm) excluding from the analysis for activity against […]); assay type: functional
Tenebrio molitor [5] = test: Tested for juvenile hormone mimetic activity in Tenebrio molitor (yellow mealworm) excluding from the analysis for activity against Tenebrio molitor; assay type: functional; design: unit not given here

Row | SMILES | logP [3] | pI50 (Tenebrio molitor [1]) [uM pupa-1] | pI50 (Tenebrio molitor [2]) [uM pupa-1] | pI50 (Tenebrio molitor [4]) [uM pupa-1] | pI50 (Tenebrio molitor [5])
1 | COC(C)(C)CCCC(C)C/C=C/C(C)=C/C(=O)C1N=N1 (centres undefined) | – | 6.12 | – | – | –
2 | CC(/C=C/CC(C)CCCC(C)C)=C\C(=O)C1N=N1 (centres undefined) | – | 5.15 | – | – | –
3 | CC(/C=C/CC(C)CCCC(C)C)=C\C(=O)O (centres undefined) | 5.95 | – | – | – | <0.45
4 | CC(/C=C/CC(C)CCCC(C)C)=C\C(=O)OC(C)(C)C (centres undefined) | 7.56 | 1.01 | – | – | –

Now from value to molecule, other results behind:

Row | logP [3] | SMILES | pI50 (Tenebrio molitor [1]) [uM pupa-1] | pI50 (Tenebrio molitor [2]) [uM pupa-1] | pI50 (Tenebrio molitor [4]) [uM pupa-1] | pI50 (Tenebrio molitor [5])
5 | 3.15 | CCNC(=O)/C=C(C)/C=C/CC(C)CCCC(C)(C)O (centres undefined) | – | 5.22 | – | –
6 | 4.65 | CCOC(=O)/C=C(C)/C=C/CC(C)CCCC(C)(C)O (centres undefined) | – | – | ~0.54 | –
7 | 4.04 | CCNC(=O)/C=C(C)/C=C/CC(C)CCCC(C)(C)OC (centres undefined) | – | – | – | 5.95
8 | 5.65 | CCNC(=O)OC(C)(C)CCCC(C)C/C=C/C(C)=C/C(=O)OCC (centres undefined) | – | – | – | <0.55
